Measured values from ChEMBL document CHEMBL5532658 (Eur J Med Chem, 2024).
Activity calls are given as the source filed them. The rule behind the calls is not given here.

Columns and labels:
[1] = test system: MDA-MB-231; assay: Downregulation of Rb protein phosphorylation at Ser811 in human MDA-MB-231 cells incubated for 24 hrs by Western blot analysis; format: functional, cell-based; settings: dose 37-333 nM
[2] = Half life in CD1 mouse at 1 mg/kg, iv measured upto 24 hrs by LC-MS/MS analysis; format: ADME, organism-based; settings: in vivo
[3] = test system: MDA-MB-453; assay: Downregulation of Rb protein phosphorylation at Thr821 in human MDA-MB-453 cells incubated for 24 hrs by Western blot analysis; format: functional, cell-based; settings: dose 37-333 nM
[4] = Half life in CD1 mouse at 10 mg/kg, po measured upto 24 hrs by LC-MS/MS analysis; format: ADME, organism-based; settings: in vivo
[5] = biological target: Cyclin-dependent kinase 18 (Homo sapiens) (UniProt Q07002); assay: Inhibition of CDK18 (unknown origin) at 1 uM by discoverX kinomescan assay
Chain of Cyclin-dependent kinase 18 (Homo sapiens) (Q07002 whole entry): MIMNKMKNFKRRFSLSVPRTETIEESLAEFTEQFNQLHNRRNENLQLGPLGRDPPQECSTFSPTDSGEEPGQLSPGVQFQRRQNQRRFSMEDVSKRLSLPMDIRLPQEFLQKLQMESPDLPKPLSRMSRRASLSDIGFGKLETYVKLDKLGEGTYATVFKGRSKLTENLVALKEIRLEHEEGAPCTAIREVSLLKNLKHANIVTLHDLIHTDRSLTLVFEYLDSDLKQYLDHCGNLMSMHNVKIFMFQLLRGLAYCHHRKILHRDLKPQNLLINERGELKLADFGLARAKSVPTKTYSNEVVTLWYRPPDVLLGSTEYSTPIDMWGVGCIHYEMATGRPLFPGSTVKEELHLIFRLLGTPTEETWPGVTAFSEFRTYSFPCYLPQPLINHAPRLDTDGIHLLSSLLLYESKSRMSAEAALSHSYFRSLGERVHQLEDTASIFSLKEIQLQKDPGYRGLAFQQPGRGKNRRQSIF

[6] = test system: MDA-MB-453; assay: Downregulation of Rb protein phosphorylation at Ser795 in human MDA-MB-453 cells incubated for 24 hrs by Western blot analysis; format: functional, cell-based; settings: dose 37-333 nM
[7] = biological target: T1, Cyclin-dependent kinase-like 5 (Homo sapiens) (UniProt O76039); assay: Inhibition of CDKL5 (unknown origin) at 1 uM by discoverX kinomescan assay
T1 sequence (whole entry): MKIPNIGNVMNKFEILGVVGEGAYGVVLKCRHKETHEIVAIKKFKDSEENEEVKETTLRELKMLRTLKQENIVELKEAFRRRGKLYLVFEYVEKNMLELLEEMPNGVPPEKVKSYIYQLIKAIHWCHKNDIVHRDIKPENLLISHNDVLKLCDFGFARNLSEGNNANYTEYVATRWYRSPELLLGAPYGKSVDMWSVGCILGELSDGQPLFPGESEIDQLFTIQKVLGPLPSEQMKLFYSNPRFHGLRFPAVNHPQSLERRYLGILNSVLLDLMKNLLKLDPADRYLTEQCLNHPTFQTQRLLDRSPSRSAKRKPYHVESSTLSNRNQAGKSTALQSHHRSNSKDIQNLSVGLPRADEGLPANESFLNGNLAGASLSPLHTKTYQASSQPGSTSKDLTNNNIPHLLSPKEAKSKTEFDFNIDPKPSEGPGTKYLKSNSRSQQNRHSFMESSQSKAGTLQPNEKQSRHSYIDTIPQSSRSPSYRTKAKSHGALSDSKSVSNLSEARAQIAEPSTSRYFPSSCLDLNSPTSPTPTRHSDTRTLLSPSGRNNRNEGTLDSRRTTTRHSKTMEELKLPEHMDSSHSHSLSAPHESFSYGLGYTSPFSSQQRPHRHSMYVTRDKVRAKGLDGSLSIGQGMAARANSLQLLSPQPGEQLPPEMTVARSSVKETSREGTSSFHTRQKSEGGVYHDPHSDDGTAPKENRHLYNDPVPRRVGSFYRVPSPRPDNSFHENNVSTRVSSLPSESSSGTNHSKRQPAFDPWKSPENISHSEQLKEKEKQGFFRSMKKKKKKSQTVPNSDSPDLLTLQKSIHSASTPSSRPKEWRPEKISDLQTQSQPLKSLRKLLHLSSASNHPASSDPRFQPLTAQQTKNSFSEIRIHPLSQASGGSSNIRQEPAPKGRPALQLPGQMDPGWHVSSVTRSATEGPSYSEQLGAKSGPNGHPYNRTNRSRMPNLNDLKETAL

[8] = test system: MDA-MB-231; assay: Antitumor activity against human MDA-MB-231 cells xenografted in Balb/c mouse assessed as tumor regression at 5 to 10 mg/kg, po administered once daily and measured at day 15; format: functional, organism-based; settings: dose 5-10 mg/kg
[9] = test system: MDA-MB-231; assay: Inhibition of RNA polymerase 2 C-terminal domain phosphorylation at Ser7 in heptad repeat in human MDA-MB-231 cells at 37 to 333 nM incubated for 24 hrs by Western blotting analysis; format: cell-based; settings: dose 37-333 nM
[10] = test system: MDA-MB-231; assay: Downregulation of Rb protein phosphorylation at Thr821 in human MDA-MB-231 cells incubated for 24 hrs by Western blot analysis; format: functional, cell-based; settings: dose 37-333 nM
[11] = Metabolic stability in mouse liver microsomes assessed as half-life; format: ADME, Microsome
[12] = AUC(0 to t) in CD1 mouse at 1 mg/kg, iv measured upto 24 hrs by LC-MS/MS analysis; format: ADME, organism-based; settings: in vivo
[13] = test system: MDA-MB-231; assay: Downregulation of Rb protein phosphorylation at Ser780 in human MDA-MB-231 cells incubated for 24 hrs by Western blot analysis; format: functional, cell-based; settings: dose 37-333 nM
[14] = Cmax in CD1 mouse at 10 mg/kg, po measured upto 24 hrs by LC-MS/MS analysis; format: ADME, organism-based; settings: in vivo
[15] = test system: MDA-MB-231; assay: Downregulation of Rb protein phosphorylation at Ser795 in human MDA-MB-231 cells incubated for 24 hrs by Western blot analysis; format: functional, cell-based; settings: dose 37-333 nM
[16] = Clearance in CD1 mouse at 1 mg/kg, iv measured upto 24 hrs by LC-MS/MS analysis; format: ADME, organism-based; settings: in vivo

Question: With `CP(C)(=O)c1c(C#N)ccc2c(-c3nc(N[C@@H]4CNC[C@@H](F)C4)nc4ccsc34)c[nH]c12` as the compound, how does the Activity [1] read?
Answer: Dose-Dependent Effect

Question: What about the half-life [2] of the same compound?
Answer: 1.9 h

Question: And the Activity [3]?
Answer: Dose-Dependent Effect

Question: What about the half-life [4] of the same compound?
Answer: 2.11 h

Question: What about the inhibition [5] of the same compound?
Answer: inactive

Question: And the Activity [6]?
Answer: Dose-Dependent Effect

Question: What about the inhibition [7] of the same compound?
Answer: inactive

Question: And the Activity [8]?
Answer: Active

Question: What about the inhibition [9] of the same compound?
Answer: Active

Question: What about the Activity [10] of the same compound?
Answer: Dose-Dependent Effect

Question: And the half-life [11]?
Answer: 0.85 h

Question: What about the AUC(0-t) at 24 h [12] of the same compound?
Answer: 230 ng·h/mL

Question: What about the Activity [13] of the same compound?
Answer: Dose-Dependent Effect

Question: And the Cmax [14]?
Answer: 117 ng/mL

Question: And the Activity [15]?
Answer: Dose-Dependent Effect

Question: And the clearance [16]?
Answer: 68.3 mL/min/kg
